In patent publication US20250290916A1 (Antibody Analytics Limited, priority 2022, published 2025):
“Also recorded” adds a separate entry of the source.

Key:
CD19 = molecular target: T1, CD19 (Homo sapiens, UniProt P15391); assay: T cell engager assay, Jurkat NFAT luciferase reporter cells with CHO-K1 IAA or ABA activator CD19 reporter cells; type: cell-based
T1 construct: expressed in transfected cells
T1 sequence (P15391 20-556): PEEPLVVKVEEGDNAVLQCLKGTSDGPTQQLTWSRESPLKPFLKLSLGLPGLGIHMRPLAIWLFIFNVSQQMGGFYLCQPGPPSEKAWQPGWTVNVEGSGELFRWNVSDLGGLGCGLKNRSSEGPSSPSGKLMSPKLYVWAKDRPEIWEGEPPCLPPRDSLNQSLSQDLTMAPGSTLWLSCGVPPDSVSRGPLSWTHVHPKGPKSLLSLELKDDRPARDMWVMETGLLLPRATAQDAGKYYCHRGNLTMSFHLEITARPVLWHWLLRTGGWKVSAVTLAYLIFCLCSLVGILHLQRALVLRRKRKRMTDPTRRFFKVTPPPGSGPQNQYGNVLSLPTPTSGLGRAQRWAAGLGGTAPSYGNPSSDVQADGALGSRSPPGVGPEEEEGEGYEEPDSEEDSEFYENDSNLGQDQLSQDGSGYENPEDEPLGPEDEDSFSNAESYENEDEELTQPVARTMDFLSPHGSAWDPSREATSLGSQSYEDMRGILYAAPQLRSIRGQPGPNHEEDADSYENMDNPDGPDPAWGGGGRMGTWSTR
Method: This represents a typical assay set up for measuring the effect of a bispecific against cells expressing its target antigen.
NFAT activation was determined by luminescence after 24 hours (48 Hours from assay start) and plotted against CD19 expression quantified by staining with PE anti-CD19 and plotted on a curve generated using Quantibrite PE receptor quantification kit. n=3, graphs report mean±SD.

CD4+ and CD8+ T cells = assay: Proliferation and IFNγ production of PBMC T cells stimulated with CD3/CD28 Dynabeads; type: cell-based, human; settings: PBMCs from two donors, concentration series, 96 hrs; for IFNγ production: ELISA; for proliferation of CD4+ T cells / proliferation of CD8+ T cells: proliferation dye
Excerpt: One of the main considerations for application of the CIP system in immunology assays using primary human immune cells, is the effect that the small molecules (e,g. IAA) may have on cell viability and normal function. For example, one of the main limitations of one of the rapamycin-CIP systems is the high immunoregulatory effect of rapamycin on immune cells that limits its applicability in immunology assays. The inventors assessed the effect of IAA in the function of immune cells. PBMCs from two donors were stimulated with Human T-Activator CD3/CD28 targeting Dynabeads to stimulate T cell activation and proliferation, in the presence of a increasing concentration series of IAA. T cell proliferation and IFNγ production was analysed 96 hrs post stimulation to determine any negative effects on T cells. The concentration series of IAA was selected to reflect the concentration expected to be used in assays. […] Proliferation of CD4+ (A) and CD8+ (B) T cells was assessed by flow cytometry using a proliferation dye. The results are shown in FIG. 3, IFNγ production was assessed by ELISA (panel C), n=3, graphs report […]+SD.
For example one of the main limitation of one of the rapamycin-CIP system is the high immunoregulatory effect of rapamycin on immune cells that limits its applicability in immunology assays.
Peripheral Blood Mononuclear Cells (PBMCs) from two donors were labelled with eBioscience™ Cell Proliferation Dye eFluor™ 670 (ThermoFisher #65-0840-90). […] The cells were incubated for 96 hrs in a humidified incubator at 37° C./6% CO2 at which point proliferation of CD4+ and CD8+ T cells was assessed by flow cytometry. In parallel, supernatants were collected and the levels of IFNγ was analysed by ELISA (Human IFN-gamma DuoSet ELISA, R&D systems #DY285B).

IAA CIP system [1] = assay: CD19 expression in CHO-K1 IAA activator 10× i-Scel CD19 reporter cells; type: cell-based
Excerpt: To test the system in a therapeutically relevant target, a construct expressing CD19 under the control of 10× i-Scel binding sites was introduced into the IAA activator cassette containing CHO-K1 cells and clones isolated. As the purpose of the system is to provide titratable expression of a given receptor (usually a tumour associated antigen) within a biologically relevant range, the CD19 expression was quantified using a Quantibrite bead fluorescence quantification kit which contains multiple bead populations each conjugated with set numbers of fluorophore molecules (PE in this case) per bead. Assuming the fluorophore conjugation to the detection antibody is at a 1:1 ratio (which was confirmed by the manufacture) and antibody binding to the receptor of interest (CD19) occurs at a 1:1 ratio, the number of CD19 receptors per cell can be calculated. By means of comparison, the CD19 expression level of the CD19 positive cells found in peripheral blood mononuclear cells (PBMCs), e.g. B cells, and Ramos cells were calculated in the same experiment.
(§1) Following this incubation, the cells were analysed for CD19 expression by flow cytometry.
CHO-K1 cells containing the IAA activator cassette and a 10× i-Scel CD19 reporter construct were seeded overnight in 96 well plates. […] CD19 expression was assess by flow cytometry and quantified for receptor number per cell. […]

ABA CIP system [2] = assay: tagBFP and CD19 reporter expression in HEK293 ABA activator cells; type: cell-based; settings: 1000 μM ABA, 24 hours
ABA CIP system [3] = assay: tagBFP and CD19 reporter expression in CHO-K1 ABA activator cells; type: cell-based
Method: CD19 expression was detected by flow cytometry analysis and the number of CD19 receptors per cell was quantified using a Quantibrite PE bead fluorescence quantification kit (BD Biosciences). The CD19 receptors per cell for Ramos, Raji and B cells isolated from PBMCs are shown by way of comparison.
as §1
CD19 expression was detected by anti-CD19 staining (Biolegend #302254) and flow cytometry analysis. The number of CD19 receptors per cell was quantified using a Quantibrite PE bead fluorescence quantification kit (BD Biosciences #340495).

IAA CIP system [4] = assay: IAA-inducible CD19 expression in CHO-K1 cells containing both IAA and ABA CIP systems; type: cell-based; settings: CHO-K1 IAA CD19 / ABA CD22 cells, ABA concentration series
Method: (§2) CD22 and CD19 expression was measured by flow cytometry and mean fluorescence intensity corresponding to CD22 and CD19 expression was plotted.

HEK293 cells = assay: Cytotoxicity on HEK293 cells, eFluor780 fixable viability dye, flow cytometry; type: cell-based; settings: increasing concentrations, 24 hours
Method: (§3) Before IAA was used as an expression inducer for the transduced cell lines, it was assessed for any cytotoxic effects on CHO-K1 and HEK293 cells. Cell viability in both HEK293 and CHO-K1 cells was measured by flow cytometry 24 hours post addition of IAA over the concentration range indicated.
(§4) HEK293 and CHO-K1 cells were treated with the indicated concentrations of IAA for 24 hours before being stained with eFluor780 fixable viability dye and analysed by flow cytometry.

CHO-K1 cells = assay: Cytotoxicity on CHO-K1 cells, eFluor780 fixable viability dye, flow cytometry; type: cell-based; settings: increasing concentrations, 24 hours
Method: as §3, §4

IAA CIP system [5] = assay: EGFP reporter expression in HEK293 cells with IAA activator cassette and i-Scel EGFP reporter; type: cell-based; settings: 24 hours
Excerpt: (§5) The levels of expression correlate with the number of i-Scel sites, with negligible induction observed at 1× i-Scel and the highest induction over background observed with the 10× i-Scel sites reporter. […] However, the inventors predict, that the inclusion of higher numbers of i-Scel binding sites in the reporter/TAOI cassette, would result in higher levels of induction of the reporter/TAOI.
(§6) Therefore, the 5× and 10× i-Scel binding site pools for HEK293 and CHO-K1 cells were single cell dilution cloned, and colonies picked from each cell pool and then analysed for induction of expression following IAA treatment. […] The HEK293 and CHO-K1 cells containing the IAA activator cassette and the 10× and 5× i-Scel reporter constructs were seeded overnight in 96 well plates. IAA was added at the indicated concentration and the cells were incubated for a further 24 hours. EGFP expression was detected by flow cytometry analysis.
(§7) The HEK293 and CHO-K1 cells containing the IAA activator cassette and the 10× i-Scel reporter construct were seeded overnight in 96 well plates. IAA was added at the indicated concentrations and the cells were incubated for a further 24 hours. EGFP expression was detected by flow cytometry analysis.
(§8) HEK293 and CHO-K1 cells containing the IAA activator cassette and the EGFP reporter constructs were seeded in 6 well plates. Following overnight incubation, the media was replaced with fresh media containing the indicated concentrations of IAA and the cells incubated for a further 24 hours. EGFP expression was detected using a NovoCyte flow cytometer (ACEA).

IAA CIP system [6] = assay: EGFP reporter expression in CHO-K1 cells with IAA activator cassette and i-Scel EGFP reporter; type: cell-based; settings: 24 hours
Excerpt: as §5, §6, §7, §8

ABA CIP system [7] = assay: ABA-inducible CD22 expression in CHO-K1 cells containing both IAA and ABA CIP systems; type: cell-based; settings: CHO-K1 IAA CD19 / ABA CD22 cells, IAA concentration series
Method: as §2

[8] = CHO-K1 ABA activator cells, 1000 μM ABA, 24 hours

Blincyto: CD19×CD3 targeting bispecific T cell engager
NFAT luciferase signal against number of CD19 receptors (CD19; Blincyto 10 ng/mL and 25 ng/mL, luminescence after 24 hours): concurrent increase in luciferase signal | NFAT luciferase signal at the higher concentration compared to the lower (CD19; Blincyto 25 ng/mL versus 10 ng/mL): higher but remains IAA and ABA dose dependent

S-(+)-abscisic acid [ABA]
IFNγ production (CD4+ and CD8+ T cells): minimal effects | proliferation of CD4+ T cells (CD4+ and CD8+ T cells): minimal effects | proliferation of CD8+ T cells (CD4+ and CD8+ T cells): minimal effects | CD19 expression from the IAA system (cross-talk) (IAA CIP system [1]; CHO-K1 IAA activator CD19 reporter cells, 1000 μM ABA, 24 hours): does not induce expression | CD19 expression (ABA CIP system [2]): expression of both tagBFP and CD19 was obtained | tagBFP expression (ABA CIP system [2]): expression of both tagBFP and CD19 was obtained | dose dependence of CD19 expression (receptors per cell) (ABA CIP system [3]; CHO-K1 ABA activator 9×Gal4 UAS CD19 clone, ABA concentration range, 48 hours): dose dependent induction of CD19 expression | CD19 expression (ABA CIP system [3]; [8]): expression of both tagBFP and CD19 was obtained | tagBFP expression (ABA CIP system [3]; [8]): expression of both tagBFP and CD19 was obtained | CD19 expression from the IAA CIP system upon ABA (cross-talk in a single cell line) (IAA CIP system [4]): does not induce expression; also recorded: without ABA inducing IAA-activated CD 19 expression

O=C(O)Cc1c[nH]c2ccccc12 [IAA, indole-3-acetic acid]
cell viability (percentage of cells which do not take up the dye) (HEK293 cells): no decrease in cell viability was observed | cell viability (percentage of cells which do not take up the dye) (CHO-K1 cells): no decrease in cell viability was observed | IFNγ production (CD4+ and CD8+ T cells): little or no effect | proliferation of CD4+ T cells (CD4+ and CD8+ T cells): little or no effect | proliferation of CD8+ T cells (CD4+ and CD8+ T cells): little or no effect | dose dependence of EGFP expression (IAA CIP system [5]; HEK293 10× i-Scel EGFP clone): dose-dependent induction of EGFP expression | induction of EGFP expression (IAA CIP system [5]; HEK293 stable pools, 1×, 5×, 10× i-Scel sites): induction of expression of EGFP can clearly be seen | additional induction of EGFP at 1000 μM compared to 500 μM (IAA CIP system [5]; HEK293 stable pools): no evidence of additional induction | dose dependence of EGFP expression (IAA CIP system [6]; CHO-K1 10× i-Scel EGFP clone): dose-dependent induction of EGFP expression | induction of EGFP expression (IAA CIP system [6]; CHO-K1 stable pools, 1×, 5×, 10× i-Scel sites): induction of expression of EGFP can clearly be seen | additional induction of EGFP at 1000 μM compared to 500 μM (IAA CIP system [6]; CHO-K1 stable pools): no evidence of additional induction | dose dependence of CD19 expression (receptors per cell) (IAA CIP system [1]; CHO-K1 IAA activator 10× i-Scel CD19 clone, IAA concentration range, 72 hours): a dose dependent range of CD19 expression has been achieved | CD19 expression from the ABA CIP system (cross-talk) (ABA CIP system [3]; CHO-K1 ABA activator CD19 reporter cells, 1000 μM IAA, 24 hours): does not induce expression | CD22 expression from the ABA system upon IAA (cross-talk in a single cell line) (ABA CIP system [7]): does not induce expression; also recorded: without IAA inducing ABA-activated CD22 expression
